Experimental data as given in patent publication US10188693B2, “Methods for treatment of atherosclerosis” (Stealth BioTherapeutics Corp, priority 2012, dated 2019).
Values joined by “and” are separate entries in the source; they are usually repeats but may differ in a detail not shown here. Identical values can stand only once. “Also recorded” adds a separate entry of the source.

Tests used:
Format in all cases: in vivo
[1] = tested on: Apoprotein E deficient mice; test: En face analysis of atherosclerotic lesions of the thoracic aorta (Sudan IV, % of aortic surface covered by lipid); conditions: 12 weeks
Text: (§1) Apoprotein E deficient mice (Jackson Laboratories, 600 Main Street, Bar Harbor, Me.) were used in this study. The mice were male, 7-8 weeks of age, and between 18-20 g in weight. An initial total cholesterol measurement was made on 30 mice, and the mice were grouped into two groups of 15 to match the total cholesterol measurements. Both groups were fed a “western diet” (40 kcal % butterfat, 0.15% [wt/wt] cholesterol, Harlan Teklad diet TD-88137). Starting at t=0, the control group of 15 mice received vehicle only (phosphate buffered saline at pH 7.4), while the test group of 15 mice received aromatic-cationic peptide reconstituted in phosphate buffered saline. Body weights of the mice were recorded weekly, and mortality checks were performed daily.
(§2) The aromatic-cationic peptide D-Arg-2′6′-Dmt-Lys-Phe-NH2 (sterile lyophilized powder, reconstituted in phosphate buffered saline) was tested. For the 12-week study, test mice received a single, daily dose of the peptide, subcutaneously at 1 mg/kg. Control mice received a single daily dose of vehicle.
(§3) Histopathology/Histomorphometery: Following the 12 week treatment, mice were euthanized within 48 hours after the last dose by CO2 asphyxiation and the vascular tree was perfused with 5 mL of phosphate buffered saline (pH 7.4). The aorta and aortic sinus were removed for examination. Thoracic aorta were isolated, trimmed of fat, and fixed in formalin for 48-72 hours before analysis. For en face analysis, aortas were laid out and pinned on black matrix for photography, and stained with Sudan IV. Vessels were imaged for surface involvement using a Nikon computerized image analysis system and the percent of the aortic surface area covered by lipid was calculated. Two determinations were done for each image (Quan 1 and Quan 2), and the average was computed. The data were then computed by group and statistically analyzed. Following staining and morphometric analysis, total lipids were extracted from the aortas using the Bligh-Dyer method. WAKO Diagnostics kits (WAKO Diagnostics, Inc., 1600 Bellwood Road Richmond, Va. 23237-1326) were then used to evaluate total cholesterol, free cholesterol, and cholesterol ester. Cholesterol leves were quantitate nad expressed relative to protein levels. Values are expressed as μg lipid per mg protein (see e.g., FIG. 1).

[2] = tested on: Apoprotein E deficient mice; test: Thoracic aorta lipids (Bligh-Dyer extraction, WAKO kits; TC, FC, CE per mg protein); conditions: 12 weeks
Text: as §1, §2, §3

[3] = tested on: Apoprotein E deficient mice; test: Plasma lipid analysis using an autoanalyzer (TC, Trigs, PL, FC, CE by calculation); design: TC, plasma / FC, plasma / CE, plasma / Trigs, plasma / PL, plasma / TC / FC / CE / Trigs / PL: unit not given here; conditions: for CE: plasma cholesterol ester; for FC: plasma free cholesterol; for PL: plasma phospholipid
Text: as §1, §2
Experimental Protocol/Data Collection. Blood was collected every four weeks (orbital plexis) under isoflurane anesthesia (3%) and blood lipids were determined. Plasma lipid analysis was conducted for both groups at t=0, 4, […], 8, and 12 weeks. Plasma lipid analysis using an autoanalyzer included total cholesterol (TC), triglycerides (Trigs), phospholipids (PL), free cholesterol (FC), and cholesterol ester (CE, by calculation). Gel electrophoresis was used to measure levels of high-density lipoprotein cholesterol (HDL-C), low-density lipoprotein cholesterol (LDL-C), and very low-density lipoprotein cholesterol (VLDL-C).

[4] = individual mouse, 1 mg/kg subcutaneously daily, western diet, 1 mg/kg
[5] = treated versus vehicle, listed as aromatic-cationic peptide
[6] = group average, 1 mg/kg subcutaneously daily
[7] = individual mouse, 1 mg/kg subcutaneously daily, μg lipid per mg protein, listed as Peptide, 1 mg/kg
[8] = Week 0 (t=0, start of dosing), individual mouse of test group
[9] = Week 0, group average of test group
[10] = at 4, 8 and 12 week time points, versus vehicle
[11] = week 4, individual test mouse (sample #16-30), listed as aromatic-cationic peptide
[12] = week 8, individual test mouse (sample #16-30), listed as aromatic-cationic peptide
[13] = week 12, AVE of 15 test animals
[14] = week 12, individual test mouse (sample #16-30), listed as aromatic-cationic peptide

With D-Arg-2′6′-Dmt-Lys-Phe-NH2 as the substance, how does the “Ave (average % of the surface of the aortas showing lesions)” value ([1]; group average of 15 test mice, 1 mg/kg subcutaneously daily) read?
Its value is 5.328%.

And the “Ave. % of Lesion” value ([1]; individual mouse, average of Quan 1 and Quan 2, 1 mg/kg subcutaneously daily, 1 mg/kg)?
The value was 2.615% and 0.892% and 9.027% and 3.019% and 7.009% and 4.833% and 1.996% and 1.205% and 9.948% and 2.763% and 6.814% and 4.734% and 0.834% and 11.239% and 12.990%.

What about the “Quan 1 (first determination of % of the aortic surface covered by lipid)” value [1, 4] of the same substance?
The value was 2.562% and 0.914% and 8.769% and 2.832% and 7.137% and 5.198% and 2.128% and 1.388% and 10.000% and 2.990% and 7.091% and 4.700% and 0.775% and 11.589% and 13.857%.

And the “Quan 2 (second determination of % of the aortic surface covered by lipid)” value [1, 4]?
The value was 2.667% and 0.870% and 9.284% and 3.205% and 6.881% and 4.468% and 1.863% and 1.021% and 9.895% and 2.536% and 6.536% and 4.768% and 0.892% and 10.888% and 12.122%.

What about the “atherosclerotic lesions in the aorta (% lesion area), in words” value [1, 5] of the same substance?
The value was “reduces; also recorded: lower”.

And the “CE (cholesterol ester), thoracic aorta, AVE” value [2, 6]?
The value was 14.6 µg/mg.

What about the “FC (free cholesterol), thoracic aorta, AVE” value [2, 6] of the same substance?
Its value is 5.7 µg/mg.

And the “TC (total cholesterol), thoracic aorta, AVE” value [2, 6]?
Its value is 20.4 µg/mg.

What about the “CE (cholesterol ester), thoracic aorta” value [2, 7] of the same substance?
Its value is 13.8 μg/mg and 2.7 μg/mg and 30.3 μg/mg and 14.7 μg/mg and 30.7 μg/mg and 14.1 μg/mg and 4.6 μg/mg (2×) and 5.6 μg/mg (2×) and 28.5 μg/mg and 21.3 μg/mg and 18.6 μg/mg and 11.4 μg/mg and 13.0 μg/mg.

And the “FC (free cholesterol), thoracic aorta” value [2, 7]?
Its value is 7.6 μg/mg (2×) and 4.0 μg/mg and 5.1 μg/mg and 3.0 μg/mg (2×) and 8.1 μg/mg and 2.7 μg/mg and 3.5 μg/mg and 14.6 μg/mg and 6.6 μg/mg and 3.8 μg/mg and 3.6 μg/mg and 3.3 μg/mg and 9.5 μg/mg.

And the “TC (total cholesterol), thoracic aorta” value [2, 7]?
Its value is 21.4 µg/mg and 6.7 µg/mg and 35.4 µg/mg and 17.7 µg/mg and 38.8 µg/mg and 16.8 µg/mg and 8.1 µg/mg and 20.1 µg/mg and 35.1 µg/mg and 9.4 µg/mg and 24.9 µg/mg and 21.7 µg/mg and 7.9 µg/mg and 19.0 µg/mg and 22.5 µg/mg.

And the “cholesterol esters in the thoracic aorta, in words” value [2, 5]?
Its value is “lower”.

What about the “free cholesterol in the thoracic aorta, in words” value [2, 5] of the same substance?
Its value is “lower”.

And the “total cholesterol in the thoracic aorta, in words” value [2, 5]?
The value was “lower”.

And the “FC, plasma” value [3, 8]?
The value was 119 and 121 and 134 (2×) and 110 and 116 and 131 and 129 and 184 and 113 and 139 and 170 and 151 and 159 and 220.

And the “PL, plasma” value [3, 8]?
The value was 267 (3×) and 308 and 255 and 306 and 298 and 369 and 238 and 320 and 313 and 332 and 343 and 338 and 413.

What about the “TC, plasma” value [3, 8] of the same substance?
Its value is 302 (2×) and 318 and 376 and 323 and 335 and 369 and 550 and 309 and 409 and 431 and 552 and 457 and 490 and 808.

And the “Trigs, plasma” value [3, 8]?
The value was 75 and 88 (3×) and 117 and 96 and 71 and 138 and 167 and 136 and 151 and 191 and 188 and 154 and 353.

What about the “CE, plasma” value ([3]; Week 0 (t=0, start of dosing), individual mouse of test group, by calculation) of the same substance?
Its value is 183 and 197 and 242 and 192 and 207 and 204 and 240 and 366 and 196 and 270 and 297 and 382 and 306 and 331 and 588.

What about the “FC, plasma, AVE” value [3, 9] of the same substance?
The value was 142.

What about the “PL, plasma, AVE” value [3, 9] of the same substance?
The value was 309.

And the “TC, plasma, AVE” value [3, 9]?
Its value is 422.

What about the “Trigs, plasma, AVE” value [3, 9] of the same substance?
The value was 140.

And the “CE, plasma, AVE” value ([3]; Week 0, group average of test group, by calculation)?
Its value is 280.

And the “plasma cholesterol ester, in words” value [3, 10]?
Its value is “reduces”.

What about the “plasma free cholesterol, in words” value [3, 10] of the same substance?
The value was “reduces”.

And the “plasma phospholipid levels, in words” value [3, 10]?
Its value is “reduces”.

And the “plasma total cholesterol, in words” value [3, 10]?
Its value is “reduces”.

What about the “plasma triglycerides, in words” value [3, 10] of the same substance?
The value was “reduces”.

What about the CE ([3]; week 4, AVE of 15 test animals) of the same substance?
Its CE is 610.

And the CE [3, 11]?
The CE was 491 and 580 and 622 and 731 and 626 and 417 and 574 and 660 and 515 and 536 and 630 and 761 and 581 and 732 and 701.

And the CE ([3]; week 8, AVE of 15 test animals)?
The CE was 932.

What about the CE [3, 12] of the same substance?
The CE was 940 and 710 and 1119 and 865 and 1153 and 653 and 714 and 1085 and 715 and 670 and 1073 and 1048 and 839 and 1130 and 1267.

And the CE [3, 13]?
Its CE is 681.

And the CE [3, 14]?
Its CE is 607 and 335 and 597 and 640 and 1002 and 477 and 445 and 476 and 675 and 687 and 960 and 869 and 339 and 904 and 1201.

And the FC ([3]; week 4, AVE of 15 test animals)?
Its FC is 387.

And the FC [3, 11]?
The FC was 308 and 344 and 354 (2×) and 408 and 412 and 256 and 366 and 386 and 320 and 286 and 396 and 462 and 516 and 636.

What about the FC ([3]; week 8, AVE of 15 test animals) of the same substance?
The FC was 350.

And the FC [3, 12]?
The FC was 322 and 294 (2×) and 386 and 318 and 392 and 290 and 388 and 308 (2×) and 286 and 362 and 366 and 404 and 530.

And the FC [3, 13]?
The FC was 322.

And the FC [3, 14]?
The FC was 291 and 205 and 287 and 296 and 418 and 242 and 229 and 269 and 315 and 312 and 419 and 386 and 219 and 413 and 535.

And the PL ([3]; week 4, AVE of 15 test animals)?
The PL was 514.

What about the PL [3, 11] of the same substance?
The PL was 422 and 482 and 452 and 560 and 526 and 320 and 506 and 556 and 446 and 416 and 516 and 580 and 510 and 666 and 750.
